Tests used:
[1] = Dissociation constant (pKa), GLpKa titration; assay type: physicochemical; settings: aqueous 150 mM NaCl solution
Procedure: Dissociation constant (pKa) and partition coefficient (log P) Dissociation constant (pKa) and partition coefficient (log P) of KMS88009 were measured by a pH-method using GLpKa (Sirius, UK). pKa was measured by titrating KMS88009 solution and calculated from the shape of the titration curve. […] Log P of KMS88009 was calculated by a two-phase acid-base titration in a mixture of water and octanol. Three separate potentiometric titrations of KMS88009 were carried out at 23 ℃ in various octanol-water (0.15 M KCl) mixtures (0.5% to 50% octanol). The initial pH was adjusted to 10.0 with standardized 0.5 M NaOH prior to each titration. Titrations were performed with standardized 0.5 M HCl to pH 1.8. The pKa and log P values were calculated using RefinementPro software (Sirius, UK). Values are expressed as the mean ± SD of 3 independent experiments.

[2] = test system: soluble Aβ oligomers; assay: Dot-blot immunoassay (A11/6E10) of soluble Aβ oligomers in hippocampus, prophylactic trial; assay type: in vivo, mouse; settings: hippocampus soluble fraction
Procedure: Mice subjected to behavior tests were sacrificed and levels of Aβ in their brains were analyzed. After removing olfactory lobe and cerebellum of brain, hippocampus and cerebral cortex were separated. The separated regions were Dounce-homogenized first in 10-fold mass of a lysis buffer (RIPA, 150 mM NaCl, 1% NP-40, 0.5% deoxycholic acid, 0.1% SDS and 50 mM tris, pH 8.0) or tris buffer (50 mM tris and pH 8.0) containing protease inhibitor cocktail (Pierce, USA) for prophylactic or therapeutic treatment groups, respectively. The homogenates were then centrifuged at 16,000 g for 20 min at 4°C. The supernatant (soluble Aβ fraction) was collected and stored at −70°C until analyzed. The resulting pellet was solubilized in 20-fold mass of cold guanidine solution (5 M guanidine HCl, 50 mM tris HCl and pH 8.0) at room temperature for 4 hr followed by dilution with cold Dulbecco's phosphate buffered saline (PBS) with 5% BSA and 0.03% tween-20. The diluent was centrifuged at 16,000 g for 20 min at 4°C to obtain the insoluble Aβ fraction. The tissue concentrations of Aβ40 and Aβ42 in the soluble and insoluble fraction were measured using Aβ-detecting sandwich enzyme-linked immunosorbent assay (ELISA) kit (BioSource, USA). The levels of soluble Aβ oligomers were measured by a dot-blot immunoassay with an anti-oligomer antibody and an anti-Aβ antibody on soluble fraction of hippocampus homogenates. The homogenate sample (3 µL) was spotted onto nitrocellulose membrane (Whatman, UK). After blocking with 5% BSA in tris-buffered saline (TBS) for 1 hr at room temperature, the membrane was incubated with rabbit anti-oligomer polyclonal antibody (A11; 1∶1,000; Millipore, USA) overnight at 4°C, followed by incubation with HRP-secondary anti-rabbit antibody (1∶5,000; Millipore, USA) for 1 hr at room temperature. Blots were developed using ECL reagents (PerkinElmer, USA). […] The density of dots was analyzed with Multi Gauge program (Fuji Film, Japan) and the data was normalized to the average density of the TG control group. […]

COc1ccc2cc(C=Cc3ccc(N(C)C)cc3)oc2c1 [KMS88009, 6-methoxy-2-(4-dimethylaminostyryl) benzofuran]
pKa [1]: 1.5 ± 0.12
reduction of soluble oligomeric Aβ vs vehicle-treated TG group ([2]; 10 mg/kg/day): 43.1%
reduction of soluble oligomeric Aβ vs vehicle-treated TG group ([2]; 30 mg/kg/day): 43.2%
reduction of soluble oligomeric Aβ vs vehicle-treated TG group ([2]; 100 mg/kg/day): 46.4%

— publication PMC3997483, “Aminostyrylbenzofuran Directly Reduces Oligomeric Amyloid-β and Reverses Cognitive Deficits in Alzheimer Transgenic Mice” (PLoS ONE, 2014)
